Measurements as given in patent US20250134863A1, “MEDICAL AGENT FOR TREATING OR SUPPRESSING PROGRESSION OF AMYOTROPHIC LATERAL SCLEROSIS” (MITSUBISHI TANABE PHARMA CORPORATION, priority 2022, published 2025).
“And” between values parts separate entries of the source, which are not always exact repeats. Equal values may be shown once.

Experiments:
Assay type in all cases: in vivo, human
ALS patients [1] = experiment: Post-hoc statistical analysis 1: percent change in ALSFRS-R slope on transition from placebo to edaravone (16, 17 and 19 trials); details: for Percentage change in ALSFRS-R slope, Median: Wilcoxon p=0.0433
Description: After a 12-week observation period, patients whose ALSFRS-R total score decreased by 1 to 4 points during that period were considered eligible for the trial. In the 16 trial, eligible patients were randomly divided into an edaravone treatment group and a placebo administration group, and patients in each group received administration for 24 weeks (cycles 1 to 6). After completing the 24-week double-blind portion of the 16 trial, patients who received edaravone (E) were randomly assigned to the 17 trial, and during a 24-week double-blind extension period (cycles 7 to 12), edaravone treatment (EE group) or placebo administration (EP group) was performed. On the other hand, all patients from the placebo (P) administration group received edaravone treatment (PE group). All patients received open-label edaravone treatment for the next 12 weeks (cycles 13 to 15).
(§1) Edaravone was administered at a dose of 60 mg by intravenous infusion over 60 minutes, once daily. The infusion was given for 14 days in the first treatment cycle, and for 10 days out of the 14-day treatment period in all subsequent cycles. A 14-day drug holiday period was provided after each treatment cycle.
Similar to the 16 trial, after a 12-week observation period, patients in the 19 trial were randomly divided into an edaravone treatment group and a placebo administration group, and patients in each group received administration for 24 weeks (cycles 1 to 6). In the 19 trial, after the double-blind treatment period, all patients received open-label edaravone treatment for an additional 24 weeks (cycles 7 to 12). Therefore, the 19 trial included an EE group and a PE group.
(§2) In the present analysis, efficacy was analyzed for placebo patients who had completed the 24-week double-blind period (cycles 1 to 6) and had at least one data point in cycle 7. To estimate the percent change in ALSFRS-R slope for transition from placebo administration (baseline to 24 weeks) to edaravone administration (24 weeks 24 to 48 weeks), a random coefficient model was applied to all available ALSFRS-R score data during this period.
(§3) A 25% improvement group meets both of the following criteria:
(§4) (1) ALSFRS-R slope % change ≥+25% (this change is defined as a clinically significant improvement (Reference 5: Amyotroph Lateral Scler 2010; 11 (1-2): 178-180)) and (2) ALSFRS-R total score at the start of cycle 7 (24 weeks)>24 points (half of the 48-point ALSFRS-R total score) (this helps avoid floor effects related to the ALSFRS-R total score that could lead to false positives in the analysis).
(§5) These criteria were used to define a 25% improvement group and a non-25% improvement group. Using a mixed model for repeated measures, the changes in uric acid levels from the start of cycle 7 (24 weeks) to cycle 12 (48 weeks) were summarized for the 25% improvement group and the non-25% improvement group. The correlation between the change in uric acid levels from 24 weeks to 48 weeks and the ALSFRS-R slope percent change was descriptively summarized using the Wilcoxon test.

ALS patients [2] = experiment: Post-hoc statistical analysis 1: blood uric acid levels in 25% improvement and non-25% improvement groups
Method: The blood uric acid levels in the 16 trial, 17 trial, and 19 trial were measured values obtained using the uricase-peroxidase method.
as §2, §3, §4, §5

ALS patients [3] = experiment: MCI186-19 trial (19 trial), randomized double-blind placebo-controlled phase 3, edaravone injection, ALSFRS-R; details: edaravone group, placebo −7.50±0.66, p=0.0013
Description: Clinical trials using edaravone injections include two-group phase 3 trials. In the first phase 3 trials [MCI186-16 trial (hereinafter referred to as the 16 trial) and MCI186-17 trial (hereinafter referred to as the 17 trial)], it was shown that edaravone was involved in suppressing decline in ALS function compared to placebo, as evaluated by an ALSFRS-R total score. A subgroup showing a significant therapeutic effect of Edaravone has been identified by the 16 trial, and an inclusion criterion for this subgroup is also used in designing a second major phase 3 trial, that is, a 19 trial (MCI186-19).
as §1
The MCI186-19 trial (hereinafter referred to as the 19 trial) was a randomized, double-blind, parallel-group, placebo-controlled trial. Details of the trial are as described in NCT01492686, Reference 3 (Lancet Neurol 2017; 16 (7): 505-512) and Reference 4 (Amyotroph Lateral Scler Frontotemporal Degener 2017; 18 (suppl 1): 55-63). […]

[4] = entire placebo-edaravone treatment population
[5] = 25% improvement group, ALS severity grade 3 to 5
[6] = 25% improvement group, ALS severity grade 3 to 5, first change section of Table 3 (n=21)
[7] = 25% improvement group, ALS severity grade 3 to 5, second change section of Table 3 (n=18)
[8] = 25% improvement group, all severities
[9] = non-25% improvement group, ALS severity grade 3 to 5
[10] = non-25% improvement group, ALS severity grade 3 to 5, first change section of Table 3 (n=39)
[11] = non-25% improvement group, ALS severity grade 3 to 5, second change section of Table 3 (n=24)
[12] = non-25% improvement group, all severities

**Q.** What does the source list for `CC1=NN(c2ccccc2)C(=O)C1` [edaravone, 3-methyl-1-phenyl-2-pyrazolin-5-one]?
**A.** proportion of patients showing improvement in ALSFRS-R slope (ALS patients [1]; ALS severity grade 3): 64.3%; proportion of patients with at least a 25% improvement in ALSFRS-R slope, cutoff of 24 points (ALS patients [1]; ALS severity grade 3): 35.7%; proportion of patients showing improvement in ALSFRS-R slope (ALS patients [1]; ALS severity grade 4): 66.7%; proportion of patients with at least a 25% improvement in ALSFRS-R slope, cutoff of 24 points (ALS patients [1]; ALS severity grade 4): 33.3%; patients with 25% improvement in ALSFRS-R slope of edaravone compared to placebo (ALS patients [1]; ALS severity of grade 3 or 4 at the start of cycle 7, about one-third): 21/60; Percentage change in ALSFRS-R slope, Median (ALS patients [1]; change in uric acid level >0 (n=41)): 14%; Percentage change in ALSFRS-R slope, Mean (SD) (ALS patients [1]; change in uric acid level >0 from start of cycle 7 to last administration of cycle 12 (n=41)): −64 (199) %; Percentage change in ALSFRS-R slope, Median (ALS patients [1]; change in uric acid level ≤0 (n=105)): −38%; Percentage change in ALSFRS-R slope, Mean (SD) (ALS patients [1]; change in uric acid level ≤0 from start of cycle 7 to last administration of cycle 12 (n=105)): −201 (664) %; proportion of patients showing improvement in ALSFRS-R slope upon transition from placebo to edaravone treatment (ALS patients [1]; [4]): 43.2% and 43%; proportion of patients with at least a 25% improvement in ALSFRS-R slope, cutoff of 24 points (ALS patients [1]; [4]): 24%; Uric acid level at final administration of Cycle 7, Mean (SD) (ALS patients [2]; [5]): 4.65 (1.49) mg/dL; Uric acid level at final administration of Cycle 12, Mean (SD) (ALS patients [2]; [5]): 4.61 (1.48) mg/dL; Uric acid change from start of Cycle 7 to final administration of Cycle 12, LS mean (SE) (ALS patients [2]; [6]): −0.37 (0.24) mg/dL; Uric acid change from start of Cycle 7 to final administration of Cycle 12, Mean (SD) (ALS patients [2]; [6]): 0.05 (0.47) mg/dL; Uric acid change from start of Cycle 7 to final administration of Cycle 12, LS mean (SE) (ALS patients [2]; [7]): −0.42 (0.24) mg/dL; Uric acid change from start of Cycle 7 to final administration of Cycle 12, Mean (SD) (ALS patients [2]; [7]): 0.04 (0.60) mg/dL; Uric acid change from start of Cycle 7 to final administration of Cycle 7, LS mean (SE) (ALS patients [2]; [8]): −0.16 mg/dL and −0.16 (0.15) mg/dL; Uric acid change from start of Cycle 7 to final administration of Cycle 7, Mean (SD) (ALS patients [2]; [8]): 0.05 mg/dL and 0.05 (0.49) mg/dL; Uric acid change from start of Cycle 7 to final administration of Cycle 12, LS mean (SE) (ALS patients [2]; [8]): −0.28 mg/dL and −0.28 (0.15) mg/dL; Uric acid change from start of Cycle 7 to final administration of Cycle 12, Mean (SD) (ALS patients [2]; [8]): −0.04 mg/dL and −0.04 (0.68) mg/dL; Uric acid level at final administration of Cycle 12, Mean (SD) (ALS patients [2]; [8]): 4.51 (1.43) mg/dL; Uric acid level at final administration of Cycle 7, Mean (SD) (ALS patients [2]; 25% improvement group, all severities, 2 weeks after starting edaravone): 4.63 (1.45) mg/dL; Uric acid change from start of Cycle 7 to final administration of Cycle 12, LSMD (SE) between 25% improvement group and non-25% improvement group (ALS patients [2]; ALS severity grade 3 to 5, first change section of Table 3, p=0.1701): 0.24 (0.18) mg/dL; Uric acid change from start of Cycle 7 to final administration of Cycle 12, LSMD (SE) between 25% improvement group and non-25% improvement group (ALS patients [2]; ALS severity grade 3 to 5, second change section of Table 3, p=0.0044): 0.55 (0.19) mg/dL; Uric acid change from start of Cycle 7 to final administration of Cycle 12, LSMD (SE) between 25% improvement group and non-25% improvement group (ALS patients [2]; all severities, p=0.0252): 0.28 mg/dL and 0.28 (0.12) mg/dL; Uric acid change from start of Cycle 7 to final administration of Cycle 7, LSMD (SE) between 25% improvement group and non-25% improvement group (ALS patients [2]; all severities, p=0.0726): 0.21 mg/dL and 0.21 (0.12) mg/dL; Uric acid level at final administration of Cycle 7, Mean (SD) (ALS patients [2]; [9]): 4.31 (1.10) mg/dL; Uric acid level at final administration of Cycle 12, Mean (SD) (ALS patients [2]; [9]): 4.18 (1.00) mg/dL; Uric acid change from start of Cycle 7 to final administration of Cycle 12, LS mean (SE) (ALS patients [2]; [10]): −0.61 (0.21) mg/dL; Uric acid change from start of Cycle 7 to final administration of Cycle 12, Mean (SD) (ALS patients [2]; [10]): −0.22 (0.60) mg/dL; Uric acid change from start of Cycle 7 to final administration of Cycle 12, LS mean (SE) (ALS patients [2]; [11]): −0.98 (0.22) mg/dL; Uric acid change from start of Cycle 7 to final administration of Cycle 12, Mean (SD) (ALS patients [2]; [11]): −0.40 (1.02) mg/dL; Uric acid change from start of Cycle 7 to final administration of Cycle 7, LS mean (SE) (ALS patients [2]; [12]): −0.37 mg/dL and −0.37 (0.12) mg/dL; Uric acid change from start of Cycle 7 to final administration of Cycle 7, Mean (SD) (ALS patients [2]; [12]): −0.14 mg/dL and −0.14 (0.52) mg/dL; Uric acid change from start of Cycle 7 to final administration of Cycle 12, LS mean (SE) (ALS patients [2]; [12]): −0.56 mg/dL and −0.56 (0.12) mg/dL; Uric acid change from start of Cycle 7 to final administration of Cycle 12, Mean (SD) (ALS patients [2]; [12]): -0.22 mg/dL and −0.22 (0.81) mg/dL; Uric acid level at final administration of Cycle 7, Mean (SD) (ALS patients [2]; [12]): 4.46 (1.29) mg/dL; Uric acid level at final administration of Cycle 12, Mean (SD) (ALS patients [2]; [12]): 4.48 (1.29) mg/dL; LS mean±standard error of the change in ALSFRS-R from baseline to 24 weeks (ALS patients [3]): −5.01±0.64
